The data set relates to murine CD8^+ T cells. Put plainly: Cell growth and viability of murine CD8^+ T cells. It is filed as cell-based. The settings on record: 7 days. The protocol:
After 7 days of culture, we assessed the abundance of CD62L^hiCD44^hi (TCM-like) T cells by flow cytometry (Fig. 1a). We additionally determined the effect of each compound on cell growth and viability (Fig. 1b and Extended Data Fig. 1a).
B16F10 cells were originally purchased from ATCC (catalogue no. CRL-6475) and genetically modified to express OVA, enhanced green fluorescent protein (GFP) and neomycin phosphotransferase. The resulting OVA expression B16F10-OVA cells were cultured in DMEM (catalogue no. 11995065, Thermo Fisher Scientific) containing 0.75 mg ml^−1 G418 sulphate (catalogue no. 10131027, Thermo Fisher Scientific). HEK 293T cells were purchased from Takara Bio (catalogue no. 632180) and cultured in DMEM. SKOV3 was purchased from ATCC (catalogue no. HTB-77) and cultured in McCoy’s 5A (Modified) Medium (catalogue no. 16600082, Thermo Fisher Scientific). Raji-GFP-Luc cells were purchased from Biocytogen (catalogue no. B-HCL-010) and cultured in Roswell Park Memorial Institute (RPMI) 1640 (catalogue no. 21875, Thermo Fisher Scientific). Jurkat cells were purchased from ATCC (catalogue no. TIB-152) and cultured in RPMI 1640. RAW 264.7 cells were purchased from ATCC (catalogue no. TIB-71) and cultured in RPMI 1640. HeLa cells were a gift from P. Lehner (University of Cambridge) and were authenticated using short tandem repeat profiling (Eurofins Genomics). HeLa cells were cultured in DMEM. MEFs were isolated from macerated embryonic day (E) 12.5–13.5 embryos. A whole litter of embryos without sex selection were used. Stable transfection with SV40 large T antigen passage 3 was used for immortalization. Cells were subcultured over 17 more passages and maintained in DMEM[63]. All media was supplemented with 10% FCS (catalogue no. 10270106, Gibco), 100 U ml^−1 penicillin and 100 µg ml^−1 streptomycin (catalogue no. P4333, Sigma-Aldrich). […] Cell number and viability was determined using the ADAM-MC Automated Cell Counter (NanoEntek), CellDrop Automated Cell Counter (DeNovix) or TC20 Automated Cell Counter (Bio-Rad Laboratories). […]

Here are results for one compound from publication PMC10590756, “Glutarate regulates T cell metabolism and anti-tumour immunity” (Nature Metabolism, 2023).

Turning to `CCOC(=O)CCCC(=O)OCC` [DEG, Diethyl glutarate], under “400 µM”, the “cell viability or proliferation” value is “no negative effects”. Moreover, the cell growth entry (even at 1-mM concentrations) is “did not display any negative effects”.
